# Laboratory results published in patent publication US6413930B1, “Use of cck-b receptor antagonists for the treatment of sleep disorders” (Glaxo Wellcome Spa, priority 1994, dated 2002).
# Tested on: old rats
# Test: Effect on sleep patterns (EEG pattern) in old rats
# Assay type: in vivo
# Settings: single dose, ip
# Experimental: In these animals the EEG patterns are disturbed. Administration of an effective amount of a CCK-B antagonist to such an animal alters the EEG pattern towards the normal. These effects may be observed using standard procedures such as those described by H.Depoortere et al. Physiology & Behaviour 1993, 54, 785-793.
# The ability of CCK-B antagonists to effect sleep patterns in old rats was measured by examining the effect of the compound on the EEG pattern using the procedures described by H Depoortere et al. Physiology & Behaviour 1993 54, 785-793.
row,Compound,Dose that resulted in a significant improvement in total sleep time pattern [µg/kg]
1,"O=C(Nc1ccccc1)NC1C(=O)N(CCN2CCOCC2)c2ccccc2N(CC23CC4CC(CC(C4)C2)C3)C1=O (single isomer, unassigned; (-)) [Compound 2, (−) N-[1-(1-Adamantylmethyl)-2,4-dioxo-5-[2-(4-morpholino)ethyl]-2,3,4,5-tetrahydro-1H-benzodiazepin-3-yl]-N′-phenylurea]",0.5
2,"Cc1cccc(NC(=O)NC2N=C(c3ccccc3)c3ccccc3N(C)C2=O)c1 (stereo not drawn) [Compound 3, N-(2,3-dihydro-1-methyl-2-oxo-5-phenyl-1H-1,4-benzodiazepin-3-yl]-N′-3-methylphenyl urea]",5
3,"CC(CNCC(NC(=O)CCC(=O)O)c1ccccc1)(Cc1c[nH]c2ccccc12)NC(=O)OC1C2CC3CC(C2)CC1C3.CNCC(O)C(O)C(O)C(O)CO (stereo not drawn) [Compound 4, (R-(R*, R*))4-((2-((3-(1H-indol-3-yl)-2-methyl-2-((tricyclo(3,3,1,1,3,7)dec-2yloxy)carbonyl)aminopropyl)amino)-1-phenylethyl)amino-4-oxo-butanoic acid meglumine salt]",5
4,"O=C(Nc1cccc(C(=O)O)c1)NC1C(=O)N(CC23CC4CC(CC(C4)C2)C3)c2ccccc2N(c2ccccc2)C1=O (stereo not drawn) [Compound 5, N-1[-(Adamantylmethyl)-2,4,-dioxo-5-phenyl-2,3,4,5-tetrahydro-1H-1,5-benzodiazepin-3-yl]-N′-(3-carboxyphenyl)urea]",15
5,CN(C)CCN1C(=O)C(NC(=O)Nc2ccccc2)C(=O)N(CC23CC4CC(CC(C4)C2)C3)c2ccccc21 (stereo not drawn) [Compound 6],0.5

# Same assay, conditions: single dose, ip and po
row,Compound,Dose that resulted in a significant improvement in total sleep time pattern [µg/kg]
1,"O=C(Nc1ccccc1)NC1C(=O)N(CC23CC4CC(CC(C4)C2)C3)c2ccccc2N(c2ccccc2)C1=O (single isomer, unassigned; (+)) [Compound 1, (+) N-phenyl-N′-[2,3,4,5-tetrahydro-2,4-dioxo-1-(1-adamantylmethyl)-5-phenyl-1H-1,5-benzodiazepin-3-yl]urea]",5
